As usually defined, the IC50 is the concentration that inhibits the measured activity by half.

Where two headings read alike, the source gives them in different places.

Assay type in all cases: biochemical
One assay deals with T1, BTK-WT (Homo sapiens, UniProt Q06187).
T1 construct: purified from insect cells as a full-length construct containing an N-terminal 6X-His tag; His6 (N); made in house; host or cells: insect cells (baculovirus Sf21 in Method B)
The experiment in a line: Btk in vitro inhibitory activity (one of Method A TR-FRET, Method B electrophoretic mobility shift, Method C radiometric filter binding). In general terms: Mobility shift assays separate free from complexed probe on a gel.

The target in another assay is T2, JAK3 (Homo sapiens, UniProt P52333).
T2 sequence (P52333 1-1124): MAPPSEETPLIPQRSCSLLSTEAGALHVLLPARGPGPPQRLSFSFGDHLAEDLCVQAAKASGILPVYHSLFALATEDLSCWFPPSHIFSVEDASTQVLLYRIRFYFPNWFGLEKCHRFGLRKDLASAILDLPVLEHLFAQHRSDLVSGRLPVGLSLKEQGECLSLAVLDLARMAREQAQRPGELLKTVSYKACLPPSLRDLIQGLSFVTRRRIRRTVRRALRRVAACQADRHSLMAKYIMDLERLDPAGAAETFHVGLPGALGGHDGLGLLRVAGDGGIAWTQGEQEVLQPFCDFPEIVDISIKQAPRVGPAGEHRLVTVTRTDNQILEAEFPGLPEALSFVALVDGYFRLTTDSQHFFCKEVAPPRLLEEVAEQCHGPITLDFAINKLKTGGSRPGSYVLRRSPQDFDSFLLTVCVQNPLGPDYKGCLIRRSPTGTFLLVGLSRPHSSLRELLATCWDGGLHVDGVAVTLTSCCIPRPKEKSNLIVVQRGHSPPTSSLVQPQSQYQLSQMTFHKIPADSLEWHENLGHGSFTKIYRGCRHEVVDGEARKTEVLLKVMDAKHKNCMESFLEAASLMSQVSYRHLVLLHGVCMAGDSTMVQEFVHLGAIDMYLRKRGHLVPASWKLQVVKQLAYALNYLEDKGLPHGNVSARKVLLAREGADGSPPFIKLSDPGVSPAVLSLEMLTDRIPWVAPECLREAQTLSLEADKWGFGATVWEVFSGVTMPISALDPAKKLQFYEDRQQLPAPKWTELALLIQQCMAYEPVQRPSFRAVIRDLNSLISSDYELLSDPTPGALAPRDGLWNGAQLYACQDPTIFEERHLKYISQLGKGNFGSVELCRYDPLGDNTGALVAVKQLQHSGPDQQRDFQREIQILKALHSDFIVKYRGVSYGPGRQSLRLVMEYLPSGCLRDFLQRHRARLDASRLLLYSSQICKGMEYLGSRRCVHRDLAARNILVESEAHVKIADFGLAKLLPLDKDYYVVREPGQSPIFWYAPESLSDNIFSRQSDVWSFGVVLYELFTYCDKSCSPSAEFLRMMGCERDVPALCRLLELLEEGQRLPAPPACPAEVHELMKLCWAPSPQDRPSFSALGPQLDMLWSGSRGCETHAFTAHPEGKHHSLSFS
The experiment in a line: Inhibition of a panel of kinases, in vitro HotSpot kinase assay: JAK3. Conditions: Table 10, Formula A-I; 1 μM ATP; read-out: JAK3 (IC50).

For another assay, the target named is T3, ITK (Homo sapiens, UniProt Q08881).
T3 sequence (Q08881 1-620): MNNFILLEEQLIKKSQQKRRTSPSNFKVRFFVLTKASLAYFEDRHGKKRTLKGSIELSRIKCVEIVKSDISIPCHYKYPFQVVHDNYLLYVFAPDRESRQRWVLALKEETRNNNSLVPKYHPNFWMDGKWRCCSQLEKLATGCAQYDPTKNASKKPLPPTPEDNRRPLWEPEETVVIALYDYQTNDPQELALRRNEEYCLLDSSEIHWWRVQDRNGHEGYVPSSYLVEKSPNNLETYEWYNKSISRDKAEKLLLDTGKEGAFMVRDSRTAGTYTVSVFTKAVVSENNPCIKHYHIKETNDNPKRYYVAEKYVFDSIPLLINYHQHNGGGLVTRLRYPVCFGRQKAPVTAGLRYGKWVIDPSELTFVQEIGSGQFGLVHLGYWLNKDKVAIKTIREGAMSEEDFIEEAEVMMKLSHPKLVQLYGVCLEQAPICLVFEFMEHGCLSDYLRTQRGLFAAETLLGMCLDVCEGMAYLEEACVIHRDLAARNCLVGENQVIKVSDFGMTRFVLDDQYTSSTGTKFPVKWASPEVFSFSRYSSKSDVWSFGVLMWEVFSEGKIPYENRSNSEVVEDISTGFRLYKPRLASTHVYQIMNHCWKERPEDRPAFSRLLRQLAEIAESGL
The experiment in a line: Inhibition of a panel of kinases, in vitro HotSpot kinase assay: ITK. Here is the method:
The degree of inhibition of a panel of kinases is determined using the in vitro HotSpot kinase assay (purified enzymes, ^33P-ATP, an appropriate substrate and 1 μM ATP).

Where [1] appears, read: Table 10, Formula A-I, read-out: BTK-WT (IC50).
The mark [2] stands for this setting: E compounds, Table 17, read-out: IC50 BTK-WT.
[3] abbreviates: Table 15, C compounds, read-out: IC50 BTK-WT.
The mark [4] stands for this setting: Table 15, C compounds, 1 μM ATP.

T1 sequence (Q06187 whole entry): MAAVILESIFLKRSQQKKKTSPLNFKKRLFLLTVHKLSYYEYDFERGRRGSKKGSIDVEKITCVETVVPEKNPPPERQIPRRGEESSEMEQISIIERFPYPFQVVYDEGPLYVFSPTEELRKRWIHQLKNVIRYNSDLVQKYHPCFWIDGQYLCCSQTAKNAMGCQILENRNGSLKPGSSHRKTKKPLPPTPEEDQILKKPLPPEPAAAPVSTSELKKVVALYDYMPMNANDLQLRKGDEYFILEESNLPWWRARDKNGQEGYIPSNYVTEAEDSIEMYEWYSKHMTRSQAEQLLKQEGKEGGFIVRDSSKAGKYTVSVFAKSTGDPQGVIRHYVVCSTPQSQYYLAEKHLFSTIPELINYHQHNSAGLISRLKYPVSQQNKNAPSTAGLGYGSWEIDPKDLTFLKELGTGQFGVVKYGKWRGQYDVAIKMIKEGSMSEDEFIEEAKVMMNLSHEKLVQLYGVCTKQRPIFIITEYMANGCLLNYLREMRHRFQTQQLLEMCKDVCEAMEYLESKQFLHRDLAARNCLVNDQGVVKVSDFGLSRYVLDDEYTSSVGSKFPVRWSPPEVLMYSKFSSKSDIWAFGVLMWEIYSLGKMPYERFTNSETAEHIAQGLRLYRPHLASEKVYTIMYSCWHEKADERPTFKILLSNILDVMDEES

With `C[C@@H]1[C@H](NC(=O)c2ccc(C3CC3)cc2F)CCCN1c1cnc(C(N)=O)c(Nc2ccc(N3CCN(C)CC3)cc2)n1` [Example A-81, 5-[(2R,3R)-3-(4-cyclopropyl-2-fluorobenzamido)-2-methylpiperidin-1-yl]-3-{[4-(4-methylpiperazin-1-yl)phenyl]amino}pyrazine-2-carboxamide], the values for the IC50 on BTK-WT (setting [1]) and on JAK3 were no more than 0.1 µM and 1 to 10 µM, respectively.

Regarding `Cc1cc(Nc2nc(N3CCC[C@@H](NC(=O)c4ccc(N(C)C)cc4)[C@@H]3CO)cnc2C(N)=O)sn1` [Example A-69, 5-[(2R,3R)-3-[4-(dimethylamino)benzamido]-2-(hydroxymethyl)piperidin-1-yl]-3-[(3-methyl-1,2-thiazol-5-yl)amino]pyrazine-2-carboxamide], the figures for the IC50 on BTK-WT (setting [1]) and at JAK3 were 0.1 to 1 µM and greater than 10 µM, respectively.

For the compound `Cc1cc(Nc2nc(N3CCC[C@@H](NC(=O)c4ccc(C5CC5)cc4F)C3)cnc2C(N)=O)sn1` [Example A-39, 5-[(3R)-3-(4-cyclopropyl-2-fluorobenzamido)piperidin-1-yl]-3-[(3-methyl-1,2-thiazol-5-yl)amino]pyrazine-2-carboxamide], the figures for the IC50 at BTK-WT (setting [1]) and at JAK3 were no more than 0.1 µM and greater than 10 µM, respectively.

On to `C=CC(=O)N1CCC[C@@H](Nc2nnc(C(N)=O)c(Nc3ccc(C4CC4)cc3)n2)C1` [Example E-36, (R)-3-(1-acryloylpiperidin-3-ylamino)-5-(4-cyclopropylphenyl-amino)-1,2,4-triazine-6-carboxamide], for which the IC50 is no more than 0.01 µM on BTK-WT (setting [2]) and 0.01 to 0.1 µM against ITK (E compounds, Table 17).

Regarding `C=CC(=O)N1CCC[C@@H](Nc2nnc(C(N)=O)c(Nc3ccc(C(C)C)cc3)n2)[C@@H]1C` (racemic) [Example C-33, 3-((2S,3R)-1-acryloyl-2-methylpiperidin-3-ylamino)-5-(4-isopropylphenylamino)-1,2,4-triazine-6-carboxamide], the IC50 at BTK-WT (setting [3]) is no more than 0.01 µM; at ITK (setting [4]), 0.01 to 0.1 µM.

Regarding `C=CC(=O)N1CCCC[C@H](Nc2nnc(C(N)=O)c(Nc3ccc(C(C)C)cc3)n2)C1` [Example E-19, (S)-3-(1-acryloylazepan-3-ylamino)-5-(4-isopropylphenylamino)-1,2,4-triazine-6-carboxamide], the half-inhibitory concentration (IC50) on BTK-WT (setting [2]) was no more than 0.01 µM; against ITK (E compounds, Table 17), 0.1 to 1 µM.

Consider `C=CC(=O)N1CCC(C)(c2ccc(Nc3nc(N[C@@H]4CCCN(C(=O)C=C)C4)nnc3C(N)=O)cc2)CC1` [Example C-45, (R)-5-(4-(1-acryloyl-4-methylpiperidin-4-yl)phenylamino)-3-(1-acryloylpiperidin-3-ylamino)-1,2,4-triazine-6-carboxamide], for which the 50% inhibitory concentration (IC50) at BTK-WT (setting [3]) and at ITK (setting [4]) was no more than 0.01 µM in each case.

`C=CC(=O)N1CCC[C@H](Nc2nnc(C(N)=O)c(Nc3ccc(C(C)(C)C)cc3)n2)C1` [Example C-39, (S)-3-(1-acryloylpiperidin-3-ylamino)-5-(4-tert-butylphenylamino)-1,2,4-triazine-6-carboxamide]: the IC50 on BTK-WT (setting [3]) is no more than 0.01 µM; at ITK (setting [4]) it was 0.01 to 0.1 µM.

Consider `C=CC(=O)N1CCC[C@@H](Nc2nnc(C(N)=O)c(Nc3cccc(C)c3)n2)C1` [Example E-44, (R)-3-(1-acryloylpiperidin-3-ylamino)-5-(m-tolylamino)-1,2,4-triazine-6-carboxamide], for which the IC50 on BTK-WT (setting [2]) was no more than 0.01 µM; against ITK (E compounds, Table 17), 0.01 to 0.1 µM.

Regarding `C=CC(=O)N1CCC[C@H](Nc2cnc(C(N)=O)c(Nc3ccc(C(C)C)cc3)n2)C1` [Example C-37, (S)-5-(1-acryloylpiperidin-3-ylamino)-3-(4-isopropylphenylamino) pyrazine-2-carboxamide], the values for the IC50 at BTK-WT (setting [3]) and on ITK (setting [4]) were no more than 0.01 µM and 0.1 to 1 µM, respectively.

As to `C=CC(=O)N1CCC[C@@H](Nc2nnc(C(N)=O)c(Nc3ccc(C(C)C)cc3)n2)[C@@H]1C` [Example E-17, 3-((2S,3R)-1-acryloyl-2-methylpiperidin-3-ylamino)-5-(4-isopropylphenylamino)-1,2,4-triazine-6-carboxamide], the IC50 at BTK-WT (setting [2]) is no more than 0.01 µM; on ITK (E compounds, Table 17) it was 0.01 to 0.1 µM.

For `C=CC(=O)N1CCC[C@H](Nc2nnc(C(N)=O)c(Nc3ccc(-c4ncco4)cc3)n2)C1` [Example C-34, (S)-3-(1-acryloylpiperidin-3-ylamino)-5-(4-(oxazol-2-yl)phenylamino)-1,2,4-triazine-6-carboxamide], the IC50 on BTK-WT (setting [3]) was no more than 0.01 µM; against ITK (setting [4]) it was 0.01 to 0.1 µM.

For the compound `CN(c1cnc(C(N)=O)c(Nc2ccc(C3(C)CCN(C4CCCC4)CC3)cc2)n1)[C@@H]1CCN(C(=O)C(F)(F)F)C1` [Example E-107, (R)-3-(4-(1-cyclopentyl-4-methylpiperidin-4-yl)phenylamino)-5-(methyl(1-(2,2,2-trifluoroacetyl)pyrrolidin-3-yl)amino)pyrazine-2-carboxamide], the IC50 is no more than 0.01 µM at BTK-WT (setting [2]) and no more than 0.01 µM against ITK (E compounds, Table 17).

With `C=CC(=O)N[C@@H]1CCCC[C@H]1Nc1nnc(C(N)=O)c(Nc2ccc(C(C)C)cc2)n1` [Example E-28, 3-((1R,2R)-2-acrylamidocyclo-hexylamino)-5-(4-isopropylphenylamino)-1,2,4-triazine-6-carboxamide], the IC50 on BTK-WT (setting [2]) was no more than 0.01 µM; against ITK (E compounds, Table 17), 0.1 to 1 µM.

As for `C=CC(=O)N1CCC[C@@H](Nc2nnc(C(N)=O)c(Nc3cccc(-c4nccs4)c3)n2)C1` [Example E-70, (R)-3-(1-acryloylpiperidin-3-ylamino)-5-(3-(thiazol-2-yl)phenylamino)-1,2,4-triazine-6-carboxamide], the IC50 at BTK-WT (setting [2]) was no more than 0.01 µM; at ITK (E compounds, Table 17), 0.01 to 0.1 µM.

For the compound `C=CC(=O)N1CCC[C@@H](Nc2nnc(C(N)=O)c(Nc3cccc(C)c3)n2)C1` [Example C-55, (R)-3-(1-acryloylpiperidin-3-ylamino)-5-(m-tolylamino)-1,2,4-triazine-6-carboxamide], the values for the IC50 on BTK-WT (setting [3]) and at ITK (setting [4]) were no more than 0.01 µM and 0.01 to 0.1 µM, respectively.

As to `CCC(=O)N1CCC[C@@H](Nc2nnc(C(N)=O)c(Nc3ccc(C(C)(C)C)cc3)n2)C1` [Example C-46, (R)-5-(4-tert-butylphenylamino)-3-(1-propionylpiperidin-3-ylamino)-1,2,4-triazine-6-carboxamide], the results for the IC50 on BTK-WT (setting [3]) and at ITK (setting [4]) were no more than 0.01 µM and 0.1 to 1 µM, respectively.

With `C=CC(=O)N1CCC[C@H](Nc2nnc(C(N)=O)c(Nc3ccc(C(C)(C)C)cc3)n2)C1` [Example E-23, (S)-3-(1-acryloylpiperidin-3-ylamino)-5-(4-tert-butylphenylamino)-1,2,4-triazine-6-carboxamide], the IC50 was no more than 0.01 µM at BTK-WT (setting [2]) and 0.01 to 0.1 µM on ITK (E compounds, Table 17).

As to `C=CC(=O)N[C@H]1CCCC[C@@H]1Nc1nnc(C(N)=O)c(Nc2ccc(C(C)C)cc2)n1` [Example E-29, 3-((1S,2S)-2-acrylamidocyclohexyl-amino)-5-(4-isopropylphenylamino)-1,2,4-triazine-6-carboxamide], the concentration for half-maximal inhibition (IC50) was no more than 0.01 µM at BTK-WT (setting [2]) and 0.1 to 1 µM against ITK (E compounds, Table 17).

For the origin of these results see US20210070748A1, “INHIBITORS OF BRUTONS TYROSINE KINASE” (Pharmacyclics LLC, priority 2015, published 2021).
